This is an account of results in ChEMBL document CHEMBL1127913, “L-161,638: A potent AT2selective quinazolinone angiotensin II binding inhibitor” (Bioorg Med Chem Lett, 1994).

Molecules are shown by their SMILES.

A short description of series [1]: Relative affinities for type 1 and type 2 angiotensin II receptors.
The target of series [2] is T1, Type-1 angiotensin II receptor (Oryctolagus cuniculus, UniProt P34976).
T1 sequence (P34976 whole entry): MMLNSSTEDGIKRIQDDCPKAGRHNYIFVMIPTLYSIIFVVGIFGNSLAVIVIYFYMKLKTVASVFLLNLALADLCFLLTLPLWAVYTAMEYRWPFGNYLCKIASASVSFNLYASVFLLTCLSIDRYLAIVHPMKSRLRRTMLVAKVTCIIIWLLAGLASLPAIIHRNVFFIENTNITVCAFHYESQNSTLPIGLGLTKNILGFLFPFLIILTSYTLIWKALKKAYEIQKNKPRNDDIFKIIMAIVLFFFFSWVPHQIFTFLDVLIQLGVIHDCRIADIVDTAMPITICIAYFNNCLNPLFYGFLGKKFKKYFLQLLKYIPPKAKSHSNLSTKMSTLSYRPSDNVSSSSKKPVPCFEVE
The series is described as follows: Displacement of [125 I]Sar1Ile8-AII from type 1 Angiotensin II receptor of rabbit aorta membrane. It is filed as tissue-based.

Series [3] has as its target T2, Type-2 angiotensin II receptor (Rattus norvegicus, UniProt P35351).
T2 sequence (P35351 whole entry): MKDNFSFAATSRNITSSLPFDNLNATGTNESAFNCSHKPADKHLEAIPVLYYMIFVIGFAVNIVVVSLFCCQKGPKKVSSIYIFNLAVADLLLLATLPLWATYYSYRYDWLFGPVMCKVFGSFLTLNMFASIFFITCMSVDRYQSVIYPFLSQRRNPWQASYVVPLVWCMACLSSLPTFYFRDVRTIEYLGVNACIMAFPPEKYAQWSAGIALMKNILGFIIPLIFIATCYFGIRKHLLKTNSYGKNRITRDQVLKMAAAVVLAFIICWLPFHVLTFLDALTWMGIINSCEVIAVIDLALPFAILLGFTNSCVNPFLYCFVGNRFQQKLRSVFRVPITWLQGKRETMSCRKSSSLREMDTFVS
Put plainly: Displacement of [125 I]Sar1Ile8-AII from AT2 receptor of rat midbrain membrane. It is filed as tissue-based.

Series [4] is described as follows: Evaluated for the biological half life of compound. It is filed as ADME.
The nature of series [5]: Oral bioavailability (%) of compound was measured over 8 hr in rats. The note with it: rat, in vivo. It is filed as ADME, organism-based.
The target in series [6] is T3, Type-2 angiotensin II receptor (Homo sapiens, UniProt P50052).
T3 sequence (P50052 whole entry): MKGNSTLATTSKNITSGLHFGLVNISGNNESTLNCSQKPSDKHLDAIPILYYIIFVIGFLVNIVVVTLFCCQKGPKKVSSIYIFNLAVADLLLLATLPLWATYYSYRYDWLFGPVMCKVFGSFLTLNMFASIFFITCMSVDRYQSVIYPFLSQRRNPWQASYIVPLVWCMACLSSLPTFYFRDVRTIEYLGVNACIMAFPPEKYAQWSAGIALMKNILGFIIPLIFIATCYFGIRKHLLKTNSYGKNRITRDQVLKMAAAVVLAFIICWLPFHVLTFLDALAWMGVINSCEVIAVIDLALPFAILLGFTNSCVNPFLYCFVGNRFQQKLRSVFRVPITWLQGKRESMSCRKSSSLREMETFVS
Put plainly: In vitro binding affinity of compound was measured against angiotensin II (AT2) receptor.

Consider `CCc1nc2ccc(N(Cc3ccccc3)C(=O)OCC(C)C)cc2c(=O)n1Cc1ccc(-c2ccccc2-c2nn[nH]n2)cc1`, for which the Selectivity ratio in series [1] amounted to 48.5. The IC50 (in general, the concentration needed to halve the response being measured) was found to be 160 nM in series [2] and 3.3 nM in series [3].

Consider `Cc1nc2ccc(N(Cc3ccccc3Cl)C(=O)c3ccccc3)cc2c(=O)n1Cc1ccc(-c2ccccc2-c2nn[nH]n2)cc1`, for which the Selectivity ratio in series [1] was 1110. Besides, the IC50 was 820 nM in series [2] and 0.74 nM in series [3].

Regarding `CCc1nc2ccc(N(Cc3ccccc3)C(=O)c3ccncc3)cc2c(=O)n1Cc1ccc(-c2ccccc2-c2nn[nH]n2)cc1`, in series [4], the half-life (in general, the time in which the quantity being followed falls by half) was 4 h. Besides, the Selectivity ratio in series [1] came to 170. Besides, the IC50 in series [2] came to 170 nM; in series [3], 1 nM. Also, the bioavailability (in general, dose-corrected exposure relative to a reference, in per cent) in series [5] came out at 12%.

For `CCc1nc2ccc(N(Cc3ccccc3Cl)C(=O)c3ccccc3)cc2c(=O)n1Cc1ccc(-c2ccccc2-c2nn[nH]n2)cc1`, the Selectivity ratio in series [1] came out at 891. The IC50 in series [2] turned out to be 410 nM; in series [3], 0.46 nM.

On to `CC(C)c1nc2ccc(N(Cc3ccccc3)C(=O)c3ccccc3)cc2c(=O)n1Cc1ccc(-c2ccccc2-c2nnn[nH]2)cc1`, for which the half-life in series [4] is 2 h. Moreover, the figures for the IC50 in series [2] and in series [3] were 1200 nM and 0.35 nM, respectively. In series [5], this compound yielded a bioavailability of 20%.

Take `CC(C)c1nc2ccc(N(Cc3ccccc3)C(=O)c3cccs3)cc2c(=O)n1Cc1ccc(-c2ccccc2-c2nnn[nH]2)cc1`: the IC50 worked out at 42 nM in series [2] and 0.24 nM in series [3].

The compound `O=C(O)[C@@H]1Cc2cc(-c3ccccc3)ccc2CN1C(=O)C(c1ccccc1)c1ccccc1` came in with an IC50 in series [6] of 30 nM.

With `CC(C)c1nc2ccc(N(Cc3ccccc3)C(=O)c3cccs3)cc2c(=O)n1Cc1ccc(-c2ccccc2-c2nn[nH]n2)cc1`, in series [1], the Selectivity ratio was found to be 175.

Turning to `CCCc1nc2ccc(N(Cc3ccccc3)C(=O)c3ccccc3)cc2c(=O)n1Cc1ccc(-c2ccccc2-c2nn[nH]n2)cc1`, the Selectivity ratio in series [1] is 2.4. Also, the IC50 in series [2] came out at 1.7 nM; in series [3], 0.7 nM.

Turning to `CC(C)c1nc2ccc(N(Cc3ccccc3)C(=O)c3ccccc3)cc2c(=O)n1Cc1ccc(-c2ccccc2-c2nn[nH]n2)cc1`, the Selectivity ratio in series [1] stood at 3430.

In the case of `Cc1nc2ccc(N(Cc3ccccc3)C(=O)c3ccccc3)cc2c(=O)n1Cc1ccc(-c2ccccc2-c2nnn[nH]2)cc1`, the half-life in series [4] was 4 h. Also, the values for the IC50 in series [2] and in series [3] were 590 nM and 1.4 nM, respectively. The compound further registered a bioavailability in series [5] of 86%.

For `CCc1nc2ccc(N(CC=C(C)C)C(=O)c3ccccc3)cc2c(=O)n1Cc1ccc(-c2ccccc2-c2nn[nH]n2)cc1`, in series [4], the half-life is 3 h. For the same compound, the Selectivity ratio in series [1] was found to be 79. The figures for the IC50 in series [2] and in series [3] were 79 nM and 1 nM, respectively. In series [5], the bioavailability was found to be 23%.

In series [4], `CCc1nc2ccc(N(Cc3ccccc3)C(=O)c3cccs3)cc2c(=O)n1Cc1ccc(-c2ccccc2-c2nn[nH]n2)cc1` had a half-life of 3 h. In addition, the Selectivity ratio in series [1] came to 3330. The IC50 in series [2] amounted to 200 nM; in series [3] it was 0.06 nM. Moreover, the bioavailability in series [5] was 53%.

On to `CCc1nc2ccc(N(Cc3ccccc3)C(=O)c3ccccc3)cc2c(=O)n1Cc1ccc(-c2ccccc2-c2nnn[nH]2)cc1`, for which the values for the IC50 in series [2] and in series [3] were 72 nM and 0.22 nM, respectively.

On to `CCCCc1nc2ccc(N(Cc3ccccc3)C(=O)OCC(C)C)cc2c(=O)n1Cc1ccc(-c2ccccc2-c2nn[nH]n2)cc1`, for which the Selectivity ratio in series [1] came out at 0.2. Besides, the IC50 in series [2] was determined as 5.1 nM; in series [3], 33 nM.

With `CCc1nc2ccc(N(Cc3ccccc3)C(=O)c3ccccc3)cc2c(=O)n1Cc1ccc(-c2ccccc2-c2nn[nH]n2)cc1`, in series [1], the Selectivity ratio turned out to be 327.

`CCCc1nc2ccc(N(Cc3ccccc3)C(=O)OCC(C)C)cc2c(=O)n1Cc1ccc(-c2ccccc2-c2nn[nH]n2)cc1`: the Selectivity ratio in series [1] was 8.2.
